Experimental data from patent US6479044B1, “Antibacterial solution” (Colgate-Palmolive Company, priority 2001, dated 2002).

Assay: Resistance to rinse by colorimetry (Indigotine dye revelation, chromameter)
Assay type: physicochemical
Settings: 50 μl on ceramic tile, rinsed 2×10 ml deionized water, Indigotine dye 0.033%
Protocol: Methodology: 50 μl of each solution in deionized water is deposited on a ceramic tile 2.5 cm×2.5 cm. After drying at room temperature, the treated tiles are rinsed with 2×10 ml deionized water. The revelation is then performed with 200 μl lndigotine dye ex. Wackherr (Cl 73015) at 0.033% in deionized water (3 minutes contact). After removing the excess of dye with 10 ml deionized water and drying of the surface, the coloration intensity is measured with a chromameter (Minolta CR200™). The higher the ΔE, the higher the difference of coloration versus the reference tile (no treatment, no contact with the dye). The coloration is the signal of the persistence of the PHMB on the surface after rinsing.

For `CCCCCCCCCCCCOS(=O)(=O)[O-].[Na+]` [SLS 0.1%, sodium lauryl sulfate], the “ΔE (coloration versus reference tile)” value was 0.5.
